This is an account of results in US20250257111A1, “Supramolecular Complex of a Biomolecule” (Cambridge Enterprise Limited, priority 2022, published 2025).

Square brackets hold non-standard residues; d marks the D form. Peptide text beside a SMILES is read from it. 2Nal = N[C@@H](Cc1ccc2ccccc2c1)C(=O)O

Data set [1] in a line: CD secondary structure verification of released insulin. Format: physicochemical. On the procedure:
CD measurements were performed on a Chirascan spectrometer (Applied Photophysics). Scans were carried out at 298 K from 200-500 nm at 1.0 nm intervals. The acquisition time was 0.5 second in a 0.1 cm path length quartz cuvette. CD spectra were collected using solutions from the above UV experiments of the 8-day storage and release experiments. […] All solutions were diluted 2× before the measurements. All scans were collected and averaged out over three scans with background noise correction.

Data set [2] can be described thus: UV quantification of insulin on-resin recognition, 8-day storage and on-demand release. Format: physicochemical. The protocol:
UV spectra were obtained on a Cary 4000 Ultravioletvisible Spectrometer. A pair of quartz cuvettes with 2 mm gap was used. Double beam mode with a fixed 2 nm spectral bandwidth and baseline correction were selected. In a typical run, 300 μl of 1 mM solution was transferred to the quartz cuvette and was scanned compared to phosphate buffer in D2O. UV spectra were obtained in the linear absorption range (0.2-0.8) for better quantification.
1 N HCl was immediately added to reach acid concentration of 5 mM. […] In a typical experiment, 8 μmol F′GGGGG equivalent of resin H2O suspension was added to a 12 ml syringe with a polyester frit (r=8.0 mm, h=2.0 mm). After H2Owas drained, 8 ml of 0.1 mM CB[8] solution was added to the resin and the plunge and a stopper were assembled to the syringe to form a sealed chamber. The syringe was transferred onto a wrist-action shaker and shaken for 12 hours. […] Then, the liquid (resin-treated solution) in syringe was drained thoroughly and the resin was washed with H2Oonce. After that, 0.8 ml of 2 mM DMADA solution (in 5 mM of HCl) was added to the resin and shaken gently for an additional 3 hours. The solution (released solution) was drained.
The 8-day storage and release experiment was conducted as follows. 9 syringes were prepared each with 8 μmol F′GGGGG equivalent of resin H2Osuspension. […] All syringes with the resin were kept at room temperature. Starting from day 0 to day 8, on each day, a syringe with resin was added with 0.8 ml of 2 mM DMADA solution (to get released solution, one per day). All yielded solutions were analyzed on UV spectroscopy immediately. Numbers to calculate released percentage in FIG. 4g were absorbance at 276 nm.

Data set [3] in a line: ITC: titration of F′GG into CB[8] (stepwise binding). To be noted: F′GG (3.0 mM) into CB[8] (0.1 mM). On the procedure: (§1) Isothermal titration calorimetry (ITC) was employed to study binding thermodynamics of heteropeptide dimerization (FIG. 2c and additional data not shown). Titration of F′GG (3.0 mM) into CB[8](0.1 mM) led to a stepwise binding curve with two transitions at molar ratios of 1.0 and 2.0 (FIG. 2c). The first-step binding constant (K1) is 6.6×10^5 M^−1, while the second-step (K2) is 9.4×10^3 M^−1. This indicates negative cooperativity where K1>K2^18,19,23 Such favourable 1:1 complexation enables secondary access of electron-rich aromatic peptides.
ITC experiments were operated on a Malvern MicroCal Auto-ITC200 apparatus at 298 K in 10 mM phosphate buffer with pH 7.0. In a of 1 injection of 0.6 μL and 32 consecutive injections of 1.2 μL with 90 s intervals between injections. The first data point was removed before analysis. The ITC data were fitted by MicroCal Analysis Centre software using one set of sites model. In a typical experiment for homoternary complexation, the host molecule (CB[8]) was loaded in the sample cell with a concentration of 0.1 mM, and the guest peptide was loaded in the syringe with a concentration of 2.0 mM. The injection and interval settings were the same as above. The first data point was removed from the data set before analysis. The obtained ITC curves were fitted by MicroCal Analysis Centre software using sequential binding model. […]

The conditions of data set [4]: cited from earlier work.
Data set [5] has as its system 1:1 complex of F′GG-CB[8]. Description: ITC: secondary association of tripeptides with the 1:1 complex of F′GG-CB[8]. To be noted: for Ka: 10 mM phosphate buffer pH 7.0, 298 K, averaged with three replicates; for secondary association / binding to F′GG-CB[8]: in words. Format: binding. On the procedure: as §1
ITC experiments were operated on a Malvern MicroCal Auto-ITC200 apparatus at 298 K in 10 mM phosphate buffer with pH 7.0. In a of 1 injection of 0.6 μL and 32 consecutive injections of 1.2 μL with 90 s intervals between injections. The first data point was removed before analysis. The ITC data were fitted by MicroCal Analysis Centre software using one set of sites model. In a typical experiment for homoternary complexation, the host molecule (CB[8]) was loaded in the sample cell with a concentration of 0.1 mM, and the guest peptide was loaded in the syringe with a concentration of 2.0 mM. The injection and interval settings were the same as above. The first data point was removed from the data set before analysis. The obtained ITC curves were fitted by MicroCal Analysis Centre software using sequential binding model. All parameters were averaged with three replicates, s.d. n=3.

For “insulin: Insulin (Human Recombinant), purchased; widely-used biopharmaceutical for diabetes treatment”, the “secondary structures of insulin after storage” value in data set [1] (after 2, 5, 8 days of storage under room temperature on functionalized resin) was “intact”. In addition, the “CD absorbance at 208 nm, signal (mean of repeats)” value was −56.4 θm · deg in data set [1] (insulin, original); −56.4 θm · deg in data set [1] (released on day 2); −50.3 θm · deg in data set [1] (released on day 5); −52.3 θm · deg in data set [1] (released on day 8). For the same compound, the “UV absorbance at 276 nm, released” value in data set [2] (release on day 0) is given as 0.176 abs; in data set [2] (release on day 2, storage at room temperature), 0.1768 abs; in data set [2] (release on day 5, storage at room temperature), 0.1683 abs; in data set [2] (release on day 8, storage at room temperature), 0.1739 abs.
“(S)-2-amino-N-(2-((2-amino-2-oxoethyl)amino)-2-oxoethyl)-3-(perfluorophenyl) propenamide [F′GG]”: in data set [3], the “first-step binding constant (K1)” value was 660000 M⁻¹ and the “second-step binding constant (K2)” value was found to be 9400 M⁻¹.
As for `NC(=O)CNC(=O)CNC(=O)[C@@H](N)Cc1ccccc1` [FGG, (S)-2-amino-N-(2-((2-amino-2-oxoethyl)amino)-2-oxoethyl)-3-phenylpropanamide] (H-Phe-Gly-Gly-NH2), in data set [4], the “binding strength K of homodimer 2FGG-CB[8]” value is “ca. 10^11 M^−2”. Further, in data set [5], the Ka is recorded as 356 ± 26 10^3M^−1.
Regarding `NCC(=O)NCC(=O)N[C@@H](Cc1ccc2ccccc2c1)C(N)=O` [GGNp, (S)-2-(2-(2-aminoacetamido)acetamido)-3-(naphthalen-2-yl)propanamide] (H-Gly-Gly-[2Nal]-NH2), in data set [5], the Ka is reported as 90 ± 2 10^3M^−1.
On the same count and under the same terms, to `NCC(=O)N[C@@H](Cc1c[nH]c2ccccc12)C(=O)NCC(N)=O` [GWG, (S)—N-(2-amino-2-oxoethyl)-2-(2-aminoacetamido)-3-(1H-indol-3-yl)propanamide] (H-Gly-Trp-Gly-NH2) belongs 103 ± 6 10^3M^−1.
As to `CC(C)C[C@H](N)C(=O)NCC(=O)NCC(N)=O` [LGG, reference compound] (H-Leu-Gly-Gly-NH2), the “secondary association / binding to F′GG-CB[8]” value (shortened to “secondary association / binding”) in data set [5] is on record as “no secondary association”.
Still for that read-out and setting: to `NC(=O)CNC(=O)CNC(=O)[C@@H](N)CCC(=O)O` [EGG, reference compound] (H-Glu-Gly-Gly-NH2) belongs “no secondary association”.
Consider `NC(=O)CNC(=O)CNC(=O)[C@@H](N)Cc1ccc(O)cc1` [YGG] (H-Tyr-Gly-Gly-NH2), for which the Ka in data set [5] was 3 ± 5 10^3M^−1.
Turning to `NCCCC[C@H](N)C(=O)NCC(=O)NCC(N)=O` [KGG, (S)-2,6-diamino-N-(2-((2-amino-2-oxoethyl)amino)-2-oxoethyl)hexanamide, reference compound] (H-Lys-Gly-Gly-NH2), the “secondary association / binding” value in data set [5] is “no secondary association”.
Take `NCC(=O)N[C@@H](Cc1ccccc1)C(=O)NCC(N)=O` [GFG, (S)—N-(2-amino-2-oxoethyl)-2-(2-aminoacetamido)-3-phenylpropanamide] (H-Gly-Phe-Gly-NH2): in data set [5], the Ka is 58 ± 3 10^3M^−1.
Still for that read-out and setting: to `NC(=O)CNC(=O)CNC(=O)[C@@H](N)Cc1ccc2ccccc2c1` [NpGG, (S)-2-amino-N-(2-((2-amino-2-oxoethyl)amino)-2-oxoethyl)-3-(naphthalen-2-yl) propanamide] (H-[2Nal]-Gly-Gly-NH2) belongs 382 ± 22 10^3M^−1; to `NCC(=O)N[C@@H](Cc1ccc(O)cc1)C(=O)NCC(N)=O` [GYG] (H-Gly-Tyr-Gly-NH2), 4 ± 0.3 10^3M^−1; to `NCC(=O)NCC(=O)N[C@@H](Cc1ccccc1)C(N)=O` [GGF, (S)-2-(2-(2-aminoacetamido)acetamido)-3-phenylpropanamide] (H-Gly-Gly-Phe-NH2), 22 ± 1 10^3M^−1.
On the same count and under the same terms, to `NCC(=O)N[C@@H](Cc1ccc2ccccc2c1)C(=O)NCC(N)=O` [GNpG, (S)—N-(2-amino-2-oxoethyl)-2-(2-aminoacetamido)-3-(naphthalen-2-yl)propanamide] (H-Gly-[2Nal]-Gly-NH2) belongs 165 ± 10 10^3M^−1; to `NC(=O)CNC(=O)CNC(=O)[C@@H](N)Cc1c[nH]c2ccccc12` [WGG, (S)-2-amino-N-(2-((2-amino-2-oxoethyl)amino)-2-oxoethyl)-3-(1H-indol-3-yl) propanamide] (H-Trp-Gly-Gly-NH2), 460 ± 53 10^3M^−1.
Regarding `NCC(=O)NCC(=O)N[C@@H](Cc1ccc(O)cc1)C(N)=O` [GGY, (S)-2-(2-(2-aminoacetamido)acetamido)-3-(4-hydroxyphenyl)propanamide] (H-Gly-Gly-Tyr-NH2), the “secondary association / binding” value in data set [5] is listed as “no secondary binding”.
